Tests used:
healthy volunteers [1] = experiment: Scintigraphic gastrointestinal and colonic transit, CDC study; format: in vivo, human; conditions: for AC t1/2 (ascending colon emptying) / CF 6 (colonic filling at 6 hours) / GC 4 (colonic geometric center) / GC 24 (colonic geometric center at 24 hours) / GC 48 (colonic geometric center at 48 hours) / GE t1/2: N = 20, mean ± SEM
Protocol: A double-blind, placebo-controlled, parallel-group, randomized study was conducted to evaluate the effects of oral sodium chenodeoxycholate (CDC) or placebo, once daily for 4 days, in healthy volunteers. In a second trial, oral colesevelam hydrochloride or placebo were administered for 12-14 days in patients with diarrhea-predominant irritable bowel syndrome (IBS-D). The study was approved by a review board and all participants signed informed consent. In both studies, allocation was concealed from the study investigators. In the first trial, participants were randomized to placebo, CDC 500 mg, or 1000 mg (20 per group). Sodium CDC (unconjugated) was purchased from Calbiochem (EMD Biosciences Inc., San Diego, Calif. 92121), and the Mayo pharmacy prepared identical placebo and CDC capsules, all of which were coated with the pH sensitive polymer, methacrylate (Eudragit® S-100, Rohm Pharmaceuticals, Darmstadt D-64293, Germany). The latter dissolves at the neutral pH found in the distal ileum and was used to ensure ileocolonic delivery of the CDC or placebo. All participants were screened for idiopathic bile acid malabsorption (BAM) with fasting serum 7alpha-hydroxy-4-cholesten-3-one (7αC4). 60 patients (mean age 38.7 years, 43 female) were enrolled to the study. Three groups (n=20 each) were randomized to one oral capsule daily containing placebo, 500 mg, or 1000 mg CDC, each for a period of 4 days. Gastrointestinal (GI) and colonic transit was conducted by a scintigraphic method (Burton et al., J. Nucl. Med., 38:1807-1810 (1997) and Cremonini et al., Aliment Pharmacol. Ther., 16:1781-1790 (2002)) during the last 48 hours of drug ingestion. An adaptation of an established scintigraphic method was used to measure gastrointestinal and colonic transit (Burton et al., J. Nucl. Med., 38:1807-1810 (1997) and Cremonini et al., Aliment Pharmacol. Ther., 16:1781-1790 (2002)). Patients with IBS-D had baseline measurement of colonic transit since this is known to be a significant covariate in treatment responses. The primary endpoints were the colonic geometric center (GC) at 24 hours (GC 24) and ascending colon (AC) emptying t1/2. […] The capsule was ingested following an overnight fast. After the capsule emptied from the stomach, a 99 mTc-sulfur colloid radiolabeled meal was ingested. It consisted of two scrambled eggs, one slice of whole wheat bread, and one glass of whole milk. This meal allowed measurement of gastric and small bowel transit. Subjects ingested standardized meals for lunch and dinner at 4 and 8 hours after the radiolabeled meal, respectively. Abdominal scans were obtained every hour for the first 6 hours (the first 4 hours for the assessment of gastric emptying) and at 8, 24, and 48 hours after ingestion of the ^111In capsule. The counts in the stomach and each of four colonic regions, ascending, transverse, descending, and combined sigmoid and rectum, were quantitated with a variable region of interest program. Counts were corrected for isotope decay, tissue attenuation, and downscatter of ^111In counts in the 99 mTc window. Gastric emptying t1/2 is a measure of the time for 50% of the radiolabeled meal (identifiable by radiolabeled tracer) to empty from the stomach. Colonic filling at 6 hours, or the proportion of the radiolabeled meal to have reached the colon at 6 hours, is an indirect measurement of small bowel transit time. Overall colonic transit was summarized as the colonic geometric center (GC) at specified times. The GC is the weighted average of counts in the different colonic regions (ascending (AC), transverse (TC), descending (DC), rectosigmoid (RS)) and stool, respectively 1 to 5. At any time, the proportion of counts in each colonic region is multiplied by its weighting factor as follows: (%AC×1+%TC×2+%DC×3+%RS×4+%stool×5)/100=GC Thus, a higher GC reflects a faster colonic transit. Ascending colon emptying was summarized by the t1/2 calculated by linear interpolation of values on the AC emptying curve.

healthy volunteers [2] = experiment: Daily stool diaries (bowel function), CDC study; format: in vivo, human; conditions: for Ease of passage (scale1-7) / Stool consistency by Bristol Stool Form Scale / Stool frequency per day: N = 20, mean ± SEM
Protocol: 60 patients (mean age 38.7 years, 43 female) were enrolled to the study. Three groups (n=20 each) were randomized to one oral capsule daily containing placebo, 500 mg, or 1000 mg CDC, each for a period of 4 days. Gastrointestinal (GI) and colonic transit was conducted by a scintigraphic method (Burton et al., J. Nucl. Med., 38:1807-1810 (1997) and Cremonini et al., Aliment Pharmacol. Ther., 16:1781-1790 (2002)) during the last 48 hours of drug ingestion. All participants completed bowel function diaries that documented the time of each bowel movement, stool consistency (Bristol Stool Form Scale), the ease of passage (ranging from 1=“manual disimpaction” to 7=“incontinence”), and completeness of evacuation (1=“yes” and 0=“no”). In the first study, patients recorded diaries during at least 3 days of the baseline period and the 4 days of treatment. The diaries were recorded for at least 3 days of the baseline period and during the entire treatment period of the second study.

healthy volunteers [3] = system: healthy volunteers; design: species or system human; conditions: in vivo
Protocol: An independent statistician, who otherwise was not involved in the study, generated the randomization codes, and the allocation was concealed. All clinical and laboratory study personnel were blinded throughout the study until all data were locked and analyzed. Clinical safety monitoring was conducted by the study investigators throughout the study. 60 patients (mean age 38.7 years, 43 female) were enrolled to the study. Three groups (n=20 each) were randomized to one oral capsule daily containing placebo, 500 mg, or 1000 mg CDC, each for a period of 4 days. Gastrointestinal (GI) and colonic transit was conducted by a scintigraphic method (Burton et al., J. Nucl. Med., 38:1807-1810 (1997) and Cremonini et al., Aliment Pharmacol. Ther., 16:1781-1790 (2002)) during the last 48 hours of drug ingestion.

[4] = CDC 500 mg once daily for 4 days
[5] = CDC 1000 mg once daily for 4 days

## C[C@H](CCC(=O)[O-])[C@H]1CC[C@H]2[C@@H]3[C@H](O)C[C@@H]4C[C@H](O)CC[C@]4(C)[C@H]3CC[C@]12C.[Na+] [CDC, sodium chenodeoxycholate]
Healthy volunteers [1]; [4]
  AC t1/2 (ascending colon emptying): 12.1 ± 2.1 h
  CF 6 (colonic filling at 6 hours): 49.6 ± 7.0%
  GC 4 (colonic geometric center): 0.87 ± 0.18
  GC 24 (colonic geometric center at 24 hours): 2.80 ± 0.27
  GC 48 (colonic geometric center at 48 hours): 4.10 ± 0.21
  GE t1/2: 2.115 ± 0.0883 h
Healthy volunteers [1]; CDC 500 mg or 1000 mg vs placebo
  Treatment effect on colonic filling at 6 hours (in words): not detected
Healthy volunteers [1]; [5]
  AC t1/2 (ascending colon emptying): 10.7 ± 1.9 h
  CF 6 (colonic filling at 6 hours): 46.0 ± 7.1%
  GC 4 (colonic geometric center): 1.27 ± 0.33
  GC 24 (colonic geometric center at 24 hours): 3.76 ± 0.30
  GC 48 (colonic geometric center at 48 hours): 4.92 ± 0.05
  GE t1/2: 2.383 ± 0.235 h
Healthy volunteers [1]; FIG. 3, 1000 mg p<0.0001, 500 mg p<0.01 vs placebo
  Effect on colonic transit (GC) at 24 and 48 hours (in words): overall acceleration of colonic transit
Healthy volunteers [2]; [4]
  Ease of passage (scale1-7): 4.1 ± 0.06
  Stool consistency by Bristol Stool Form Scale: 4.29 ± 0.19
  Stool frequency per day: 1.50 ± 0.18 per day
Healthy volunteers [2]; CDC 500 mg or 1000 mg vs placebo, p=0.02
  Effect on sense of complete evacuation (in words): significant overall treatment effects
Healthy volunteers [2]; [5]
  Ease of passage (scale1-7): 4.3 ± 0.06
  Stool consistency by Bristol Stool Form Scale: 4.80 ± 0.15
  Stool frequency per day: 2.01 ± 0.15 per day
Healthy volunteers [2]; FIG. 3, p<0.0001
  Effect on stool form/consistency (in words): more liquid consistency stool
Healthy volunteers [2]; FIG. 3, p<0.001
  Effect on stool frequency (in words): increase in stool frequency
Healthy volunteers [3]
  Adverse event: headache, rate: 20-25%
  Adverse events: gas, bloating and nausea, participants: 5-20%

Source: patent publication US20110038829A1, “METHODS AND MATERIALS FOR TREATING DIARRHEA” (MAYO FOUNDATION FOR MEDICAL EDUCATION AND RESEARCH, priority 2009, published 2011)
